Measured values taken from EP0888055B1, “HERBICIDAL COMPOSITION AND METHOD OF WEED CONTROL” (Novartis AG, priority 1996, dated 1997).

How the values were obtained:
Echinochloa = test: Post-emergence test (Example B1); format: in vivo; details: 24 days
Description: (§1) The expected herbicidal action E for a given combination of two herbicides can be calculated as follows (see COLBY, S.R., "Calculating synergistic and antagonistic response of herbicide combinations", Weeds 15, pages 20-22, 1967): E = X +(Y • (100 - X))/(100) [formula]
(§2) In the above formula: X = percentage growth inhibition in the case of treatment with the compound of formula A at a rate of application of p kg per hectare compared with the untreated control (= 0 %). Y = percentage herbicidal action in the case of treatment with one of the mixing partners at a rate of application of q kg per hectare compared with the untreated control. E = Expected herbicidal action (percentage herbicidal action compared with the untreated control) after treatment with the compounds of formulae A and the mixing partners at a rate of application of p + q kg of active ingredient per hectare.
(§3) The test plant seeds are grown to the 4- to 6-leaf stage under greenhouse conditions in plastics pots. The culture substrate used is a standard soil. At the 4- to 6-leaf stage the herbicides are applied separately and in admixture to the test plants. The test compounds are applied in the form of an aqueous suspension (Formulation Example F8, c)) in 500 l of water/ha. The rates of application conform to the optimum concentrations ascertained under field conditions and greenhouse conditions. Evaluation of the tests is carried out after 24 days. The following linear scale is used as a measure (% action): • 100 % = plants have died • 50 % = moderate action • 0 % = no phytotoxic action (as untreated control).
(§4) Test plants: brachiaria, cyperus, digitaria, echinochloa, panicum.

Brachiaria [1] = test: Post-emergence test (Example B1); format: in vivo; details: 24 days
Description: as §1, §2, §3, §4

Digitaria = test: Post-emergence test (Example B1); format: in vivo; details: 100 g active ingredient/ha, 24 days
Description: as §1, §2, §3, §4

Panicum = test: Post-emergence test (Example B1); format: in vivo; details: 100 g active ingredient/ha, 24 days
Description: as §1, §2, §3, §4

Maize = test: Pre-emergence test (Example B2), tolerance of useful plant; format: in vivo
Description: (§5) The test plants are sown in plastics pots in standard soil. Directly after sowing the test compounds are applied by spraying, separately or in admixture, in the form of an aqueous suspension of the test compounds (Formulation Example F8, c) and d)) or in the form of an emulsion concentrate (Formulation Example F1, d)) in 500 l of water/ha. The rates of application conform to the optimum concentrations ascertained under field conditions and greenhouse conditions. The test plants are then cultivated in the greenhouse under optimum conditions. After 34 days' (Tables B2 to B5) and 41 days' (Table B6) test duration, the test is evaluated (% action, 100 % = plants have died, 0 % = no phytotoxic action). From 61 to 80 % (especially from 81 to 100 %) phytotoxicity indicates good to very good herbicidal action in weeds; from 0 to 15 % (especially from 0 to 5 %) phytotoxicity indicates good to very good tolerance in useful plants.

Euphorbia = test: Pre-emergence test (Example B2); format: in vivo
Description: as §1, §2, §5
(§6) Test plants: abutilon, bidens, euphorbia, ipomoea, sesbamia, xanthium, rottboellia, sida, Sorghum bicolor.

Xanthium = test: Pre-emergence test (Example B2); format: in vivo; details: 34 days
Description: as §1, §2, §5, §6

Ipomoea = test: Pre-emergence test (Example B2); format: in vivo
Description: as §1, §2, §5, §6

Abutilon = test: Pre-emergence test (Example B2); format: in vivo
Description: as §1, §2, §5, §6

Bidens = test: Pre-emergence test (Example B2); format: in vivo; details: 125 g active ingredient/ha, 34 days
Description: as §1, §2, §5, §6

Sorghum bic. = test: Pre-emergence test (Example B2); format: in vivo, Sorghum bicolor; details: 1000 g active ingredient/ha, 41 days
Description: as §1, §2
The test plants are sown in plastics pots in standard soil. Directly after sowing the test compounds are applied by spraying, separately or in admixture, in the form of an aqueous suspension of the test compounds (Formulation Example F8, c) and d)) or in the form of an emulsion concentrate (Formulation Example F1, d)) in 500 l of water/ha. […] After 34 days' (Tables B2 to B5) and 41 days' (Table B6) test duration, the test is evaluated (% action, 100 % = plants have died, 0 % = no phytotoxic action). […]

Sida = test: Pre-emergence test (Example B2); format: in vivo
Description: as §1, §2, §5, §6

Rottboellia = test: Pre-emergence test (Example B2); format: in vivo; details: 125 g active ingredient/ha, 41 days
Description: as §1, §2, §5, §6

Brachiaria [2] = test: Pre-emergence test (Example B2); format: in vivo; details: 34 days
Description: as §1, §2, §5

[3] = 125 g active ingredient/ha, 34 days
[4] = 250 g active ingredient/ha, 34 days
[5] = 500 g active ingredient/ha, 34 days
[6] = 250 g active ingredient/ha, 41 days
[7] = 500 g active ingredient/ha, 41 days
[8] = 1000 g active ingredient/ha, 41 days
[9] = 150 g active ingredient/ha, 34 days
[10] = 300 g active ingredient/ha, 34 days
[11] = 600 g active ingredient/ha, 34 days

O=C(O)CNCP(=O)(O)O [Gly, glyphosate]
Herbicidal activity, Weed: Echinochloa (Echinochloa; 200 g active ingredient/ha): 0%
Herbicidal activity, Weed: Echinochloa (Echinochloa; 400 g active ingredient/ha): 20%
Herbicidal activity, Weed: Brachiaria (Brachiaria [1]; 200 g active ingredient/ha): 60%
Herbicidal activity, Weed: Brachiaria (Brachiaria [1]; 300 g active ingredient/ha): 70%
Herbicidal activity, Weed: Brachiaria (Brachiaria [1]; 400 g active ingredient/ha): 70%
Herbicidal activity, Weed: Digitaria (Digitaria): 25%
Herbicidal activity, Weed: Panicum (Panicum): 70%

CCNc1nc(Cl)nc(NC(C)C)n1 [Atra, atrazine]
Herbicidal activity, Useful plant: Maize (Maize; [3]): 0%
Herbicidal activity, Useful plant: Maize (Maize; [4]): 0%
Herbicidal activity, Useful plant: Maize (Maize; [5]): 0%
Herbicidal activity, Weed: Euphorbia (Euphorbia; [3]): 0%
Herbicidal activity, Weed: Xanthium (Xanthium; 250 g active ingredient/ha): 0%
Herbicidal activity, Weed: Xanthium (Xanthium; 500 g active ingredient/ha): 95%
Herbicidal activity, Weed: Ipomoea (Ipomoea; [3]): 0%
Herbicidal activity, Weed: Ipomoea (Ipomoea; [4]): 70%
Herbicidal activity, Weed: Abutilon (Abutilon; [3]): 0%
Herbicidal activity, Weed: Abutilon (Abutilon; [5]): 98%
Herbicidal activity, Weed: Bidens (Bidens): 60%

COCC(C)N(C(=O)CCl)c1c(C)csc1C (centres unmarked) [Dime, dimethenamid]
Herbicidal activity, Weed: Sorghum bic. (Sorghum bic.): 80%
Herbicidal activity, Useful plant: Maize (Maize; 125 g active ingredient/ha, 41 days): 0%
Herbicidal activity, Useful plant: Maize (Maize; [6]): 0%
Herbicidal activity, Useful plant: Maize (Maize; [7]): 0%
Herbicidal activity, Useful plant: Maize (Maize; [8]): 20%
Herbicidal activity, Weed: Euphorbia (Euphorbia; [7]): 30%
Herbicidal activity, Weed: Sida (Sida; [6]): 40%
Herbicidal activity, Weed: Sida (Sida; [7]): 85%
Herbicidal activity, Weed: Sida (Sida; [8]): 95%
Herbicidal activity, Weed: Ipomoea (Ipomoea; [8]): 0%
Herbicidal activity, Weed: Rottboellia (Rottboellia): 20%
Herbicidal activity, Weed: Abutilon (Abutilon; [6]): 10%

CCc1cccc(C)c1N(C(=O)CCl)[C@@H](C)COC [Met-S, aRS,1'S(-)-N-(1'-methyl-2'-methoxyethyl)-N-chloroacetyl-2-ethyl-6-methylaniline]
Herbicidal activity, Useful plant: Maize (Maize; [9]): 0%
Herbicidal activity, Useful plant: Maize (Maize; [10]): 10%
Herbicidal activity, Useful plant: Maize (Maize; [11]): 10%
Herbicidal activity, Weed: Brachiaria (Brachiaria [2]; 150 g active ingredient/ha): 20%
Herbicidal activity, Weed: Brachiaria (Brachiaria [2]; 300 g active ingredient/ha): 50%
Herbicidal activity, Weed: Euphorbia (Euphorbia; [9]): 0%
Herbicidal activity, Weed: Euphorbia (Euphorbia; [10]): 0%
Herbicidal activity, Weed: Euphorbia (Euphorbia; [11]): 0%
Herbicidal activity, Weed: Xanthium (Xanthium; 300 g active ingredient/ha): 0%
Herbicidal activity, Weed: Xanthium (Xanthium; 600 g active ingredient/ha): 20%
Herbicidal activity, Weed: Sida (Sida; [9]): 0%
Herbicidal activity, Weed: Sida (Sida; [10]): 40%
Herbicidal activity, Weed: Abutilon (Abutilon; [9]): 0%
Herbicidal activity, Weed: Abutilon (Abutilon; [10]): 10%
